Eleven molecules from ChEMBL document CHEMBL1157174, “Electronically stabilized versions of the antimalarial acetal trioxanes artemether and artesunate” (Bioorg Med Chem, 2008) can be followed below.

Activity calls are given as the source filed them. The rule behind the calls is not given here.

For this test, the system named is Plasmodium berghei. As to the kind of experiment: Antimalarial activity against Plasmodium berghei infected mice (Mus musculus) at 30 mg/kg peroral dose. Format: functional, organism-based. Also noted: dose 30 mg/kg.

As to `CCCCCCCCCCc1ccc(C(=O)O[C@@H]2O[C@@H]3O[C@]4(C)CC[C@H]5[C@H](C)CC[C@H]([C@@]35OO4)[C@@]2(C)S(C)(=O)=O)cc1`, the outcome was inactive.
With `C[C@@H]1CC[C@@H]2[C@]34OO[C@@](C)(CC[C@@H]13)O[C@H]4OC(O)[C@]2(C)F` (stereo partly specified), the outcome was inactive.
In the case of `CCCCCCCCCCCCCCCCCC(=O)O[C@@H]1O[C@@H]2O[C@]3(C)CC[C@H]4[C@H](C)CC[C@H]([C@@]24OO3)[C@@]1(C)S(C)(=O)=O`, the result was inactive.
Regarding `C[C@@H]1CC[C@@H]2[C@]34OO[C@@](C)(CC[C@@H]13)O[C@H]4O[C@@H](O)[C@]2(C)S(=O)(=O)c1ccccc1`, the result was inactive.
Regarding `C[C@@H]1CC[C@@H]2[C@]34OO[C@@](C)(CC[C@@H]13)O[C@H]4OC(=O)[C@]2(C)S(C)(=O)=O`, the result was inactive.
As for `C[C@@H]1CC[C@@H]2[C@]34OO[C@@](C)(CC[C@@H]13)O[C@H]4O[C@@H](O)[C@]2(C)S(C)(=O)=O`, the result was inactive.
On to `CO[C@H]1O[C@@H]2O[C@]3(C)CC[C@H]4[C@H](C)CC[C@@H]([C@@]1(C)F)[C@@]24OO3`, for which the outcome was inactive.
With `CO[C@@H]1O[C@@H]2O[C@]3(C)CC[C@H]4[C@H](C)CC[C@@H]([C@@]1(C)F)[C@@]24OO3`, the outcome was inactive.
Consider `C[C@@H]1CC[C@@H]2[C@]34OO[C@@](C)(CC[C@@H]13)O[C@H]4OC(=O)[C@@]2(C)S(C)(=O)=O`, for which the outcome was inactive.
On to `C[C@@H]1CC[C@@H]2[C@]34OO[C@@](C)(CC[C@@H]13)O[C@H]4O[C@H](O)[C@@]2(C)S(C)(=O)=O`, for which the result was inactive.
In the case of `CCCCCc1ccc(C(=O)O[C@@H]2O[C@@H]3O[C@]4(C)CC[C@H]5[C@H](C)CC[C@H]([C@@]35OO4)[C@@]2(C)S(=O)(=O)c2ccccc2)cc1`, the outcome was inactive.
